{
  "source": "patent US7314866B2",
  "about": "“Ku-70-derived Bax-suppressing peptides and use thereof for the protection of damaged cells” (Bloodcenter of Wisconsin, Inc., priority 2002, dated 2008)",
  "key": {"HEK293T cells": {"system": "HEK293T cells", "test": "Bax-induced apoptosis in HEK293T cells (pcDNA3-Bax transfection, Hoechst staining)", "assay_type": "cell-based, human", "conditions": "peptide delivered into the cells by liposome (BioPorter)", "method": "FIG. 1 illustrates that new peptides designed from Ku70 show anti-Bax activity. FIG. 1A: scheme of Ku70 full-length (Ku70 wt), Ku701-577 (Ku70Δ578–609), or Ku70578-609 (Ku70Δ1–577). FIG. 1C: HEK293T cells were transfected with 1.0 ug of pCMV-2B-control vector (Control) or pcDNA3-Bax (Bax) together with 2.0 ug of pCMV-2B-Ku70 wt (Ku70 wt), pCMV-2B-Ku701-577 (Ku701-577), or pCMV-2B-Ku70578-609 (Ku70578-609). All the cells were also co-transfected with 0.5 ug pEGFP for the marking of transfected cells. Apoptosis in the transfected cells was analyzed 24 hours following transfection with Hoechst dye staining of the nucleus as described in Methods. FIG. 1D: HEK293T cells were incubated with 200 uM peptide composed of Ku70578-587 or Ku70596-600 for 4 hours using BioPorter reagent, and then transfected with 1.0 ug of pCDNA3-control vector (Control) or pcDNA3-Bax (Bax). The number of apoptotic cells was determined as described in FIG. 1C. FIG. 1E: HEK293T cells (10^6 cells) were incubated with 200 uM IPMIK (negative control peptide) or VPMLK (V5) and PMLKE (P5) peptides at the indicated concentrations for 1 hour and then incubated cells were transfected with 1.0 ug of pcDNA3-Bax. Also, unincubated cells were transfected with 1.0 ug of pcDNA3-Bax in the presence or absence of 200 uM z-VAD-fmk. The number of apoptotic cells was determined as described in FIG. 1C. FIG. 1F: Summary of the anti-Bax activity and sequence of all peptides used.\nHEK293T and HeLa cells were cultured in MEM supplemented with 10% fetal bovine serum (FBS) and Du145 cells and mouse embryonic fibroblasts (MEFs) were in DMEM with 10% FBS. Transfection of the plasmids was performed by SuperFect (Qiagen) according to the manufacturer's manual. Apoptosis was induced by pcDNA3-human Bax (Bax-encoding plasmid)-transfection, Staurosporin (STS)-treatment and UVC-irradiation. The amount of the plasmids, the concentration of STS, and the energy of UVC-irradiation are described in the figure legends. Apoptosis in the transfected cells was analyzed as follows: A plasmid encoding enhanced green fluorescent protein (EGFP) (0.5 ug to 10^6 cells) was transfected to all the groups to mark the transfected cells. After the treatment, cells were stained with Hoechst dye and cells with apoptotic nuclei were counted in GFP-expressing cells under the fluorescent microscope as described by Matsuyama, et al., J. Biol. Chem. 273:30995–31001, 1998. Each point in the figures showing percentages of apoptosis represents the mean +/−SE of three experiments. Caspase activities of cells were measured by detecting the cleavage of fluorogenic substrate of Caspase (DEVD-afc) as previously described.\nBioPorter-based peptide delivery was performed 4 hours before apoptosis induction."}, "[1]": {"test": "Membrane permeability and cellular retention of peptides", "assay_type": "in vitro ADME"}},
  "note": "Where a SMILES comes first, the peptide text is derived from it.",
  "data": [
    {"compound": "578–587: synthetic peptide of Ku70 amino acids 578–587, 2nd α-helix from the C-terminus (VPMLKEACRA; UniProt P12956 578-587, looked up, fragment)", "values": [
      {"measurement": "Suppression of Bax-induced apoptosis", "setting": "HEK293T cells", "value": "inhibited Bax-induced apoptosis"}
    ]},
    {"compound": "596–600: synthetic peptide of Ku70 amino acids 596–600 (KQELL; UniProt P12956 596-600, looked up, fragment)", "values": [
      {"measurement": "Suppression of Bax-induced apoptosis", "setting": "HEK293T cells", "value": "not"}
    ]},
    {"compound": "CSCC[C@H](NC(=O)[C@@H]1CCCN1)C(=O)N[C@@H](CC(C)C)C(=O)N[C@@H](CCCCN)C(=O)N[C@@H](CCC(=O)O)C(=O)O", "note": "[PMLKE] (H-PMLKE-OH; N-terminus and C-terminus assumed)", "values": [
      {"measurement": "Membrane permeability", "setting": "[1]", "value": "membrane permeable"},
      {"measurement": "Retention of the peptide in the cell", "setting": "[1]", "value": "effectively retained inside the cells"}
    ]},
    {"compound": "CSCC[C@H](NC(=O)[C@@H]1CCCN1)C(=O)N[C@@H](CC(C)C)C(=O)N[C@@H](CCCCN)C(=O)O", "note": "[PMLK] (H-PMLK-OH; N-terminus and C-terminus assumed)", "values": [
      {"measurement": "Retention of the peptide in the cell", "setting": "[1]", "value": "not retained in the cell"}
    ]},
    {"compound": "CSCC[C@H](NC(=O)[C@@H]1CCCN1C(=O)[C@@H](N)C(C)C)C(=O)N[C@@H](CC(C)C)C(=O)N[C@@H](CCCCN)C(=O)N[C@@H](CCC(=O)O)C(=O)O", "note": "[VPMLKE] (H-VPMLKE-OH; N-terminus and C-terminus assumed)", "values": [
      {"measurement": "Membrane permeability", "setting": "[1]", "value": "not membrane permeable"}
    ]},
    {"compound": "CSCC[C@H](NC(=O)[C@@H]1CCCN1C(=O)[C@@H](N)C(C)C)C(=O)N[C@@H](CC(C)C)C(=O)N[C@@H](CCCCN)C(=O)O", "note": "[VPMLK] (H-VPMLK-OH; N-terminus and C-terminus assumed)", "values": [
      {"measurement": "Membrane permeability", "setting": "[1]", "value": "membrane permeable"},
      {"measurement": "Retention of the peptide in the cell", "setting": "[1]", "value": "effectively retained inside the cells"}
    ]}
  ]
}
